{"source": "patent US9969741B2", "about": "“Pyrazolotriazines as inhibitors of nucleases” (MASARYKOVA UNIVERZITA, priority 2014, dated 2018)", "data": [{"target": "T1, EXO1 (Homo sapiens, UniProt Q9UQ84)", "T1 construct": "made in house; host or cells: Escherichia coli BL21 (RIPL)", "T1 sequence (Q9UQ84 1-846)": "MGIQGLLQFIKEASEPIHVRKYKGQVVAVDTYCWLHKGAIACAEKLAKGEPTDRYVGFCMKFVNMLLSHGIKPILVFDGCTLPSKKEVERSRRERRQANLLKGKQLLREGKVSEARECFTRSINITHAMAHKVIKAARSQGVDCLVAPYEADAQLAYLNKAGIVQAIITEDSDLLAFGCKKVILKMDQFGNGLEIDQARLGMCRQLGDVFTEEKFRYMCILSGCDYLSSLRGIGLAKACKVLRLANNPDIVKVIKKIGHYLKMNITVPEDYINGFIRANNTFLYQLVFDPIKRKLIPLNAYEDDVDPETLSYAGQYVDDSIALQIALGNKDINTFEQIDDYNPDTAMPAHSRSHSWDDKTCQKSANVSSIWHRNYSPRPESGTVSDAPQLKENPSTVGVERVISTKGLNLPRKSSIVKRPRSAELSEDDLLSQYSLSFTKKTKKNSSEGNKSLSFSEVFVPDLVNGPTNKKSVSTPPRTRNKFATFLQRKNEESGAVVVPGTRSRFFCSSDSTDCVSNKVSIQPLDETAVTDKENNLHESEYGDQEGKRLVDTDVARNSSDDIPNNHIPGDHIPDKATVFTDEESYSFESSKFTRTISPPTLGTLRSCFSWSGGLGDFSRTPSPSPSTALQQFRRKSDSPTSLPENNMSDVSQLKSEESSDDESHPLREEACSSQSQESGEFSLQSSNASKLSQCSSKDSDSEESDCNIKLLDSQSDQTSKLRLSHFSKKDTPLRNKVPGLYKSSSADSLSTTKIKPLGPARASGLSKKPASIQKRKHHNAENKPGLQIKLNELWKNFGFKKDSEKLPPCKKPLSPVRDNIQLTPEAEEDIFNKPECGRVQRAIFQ", "test": "Nuclease inhibition assay, EXO1 (3′ OH fluorescent DNA substrate, gel readout)", "type": "biochemical", "details": "5 nM enzyme, 5 nM 3′ OH substrate, 15 min at 30° C.", "source_text": "In vitro assays were used for the determination of compound's IC50 values for inhibition of individual nucleases, i.e., MUS81/EME1, FEN1, EXO1, and MRE11. To generate IC50 values, concentration of compound was plotted against relative nuclease activity (in %). The dose-response curves were generated from inhibition data, from 5 point serial dilutions of inhibitory compounds, each in triplicate and fitted to a standard sigmoid curve. IC50 values were derived by standard nonlinear regression analysis.\nAll tested compounds were diluted in 100% DMSO (dimethylsulfoxide) to prepare working stocks with different concentrations. To keep the DMSO concentration constant in every reaction, always 0.5 μl of the compound stock was added to the reaction buffer. The reaction buffer differs depending on the enzyme tested. Also concentration of the compounds in the reaction depends on the particular enzyme, since the inhibitory effect of the compounds vary between the enzymes. Nevertheless, always doubling dilutions in the range 200-0.8 μM was used. The compound was added as the first component in the reaction buffer, followed by the enzyme addition. […]\nFor this experiment we prepared short fluorescently labeled oligonucleotide-based DNA substrates with specific structures reflecting the biochemical activities of tested individual nucleases (Table 1). […] For visualization, each substrate was labeled by fluorescent dye (fluorescein), which can be detected in the gel using appropriate imaging system (FLA-9000, Fuji) with filters for particular wavelengths (excitation: 485 nm, emission: 535 nm).\nNuclease assays were performed in reaction buffer specific for particular enzyme: MUS81/EME1 (50 mM Tris pH=7.5, 5 mM MgCl2, 1 mM DTT a 100 μg/ml BSA), MRE11 (30 mM Bis-Tris pH=7.0, 50 μg/ml BSA, 1 mM DTT a 250 μM MnCl2), EXO1 and FEN1 (50 mM Tris pH=7.5, 1 mM MgCl2, 1 mM DTT a 100 μg/ml BSA). […] Fluorescently labeled DNA was detected by FLA-9000 scanner (Fuji) and the result was evaluated using Multi-Gauge V3.2 software (Fuji). […]", "units": {"IC50": "µM"}, "values": [{"compound": "CCc1nn2c(N)c(-c3nc4ccccc4[nH]3)nnc2c1-c1ccc(F)cc1", "note": "[Preparative Example 5A]", "IC50": "> 50"}, {"compound": "Nc1c(-c2nc3ccccc3[nH]2)nnc2cc(-c3ccccc3)nn12", "note": "[Preparative Example 5C]", "IC50": "> 50"}, {"compound": "Nc1c(-c2nc3ccccc3[nH]2)nnc2cc(-c3cccc4ccccc34)nn12", "note": "[Preparative Example 5K]", "IC50": "> 50"}]}]}
